Test results from patent EP4768499A1, “MACROCYCLIC PEPTIDE COMPOUND HAVING CELL MEMBRANE PERMEABILITY AND METABOLIC STABILITY, AND LIBRARY CONTAINING SAME” (Chugai Seiyaku Kabushiki Kaisha, priority 2023, dated 2025).
Starred links: 1 amine or outer side, 2 acyl side, 3 side chain; linkers in the order of their positions; H or OH if unused. Positions of bridges follow the written chain, without caps; N, C: chain ends. Non-standard residues stand in square brackets, D forms with d. Residues, ends and D or L forms follow the SMILES beside them. *: point of attachment. NMedβ3hAla = C[C@H](CC(=O)[*:2])N(C)[*:1]; NMeF = CN[C@@H](Cc1ccccc1)C(=O)O; NMeGABA = CN(CCCC(=O)[*:2])[*:1]; NMeI = CC[C@H](C)[C@H](NC)C(=O)O; NMeT = CN[C@H](C(=O)O)[C@@H](C)O; hPhe = N[C@@H](CCc1ccccc1)C(=O)O; NMeβAla = CN(CCC(=O)[*:2])[*:1]; NMeD = CN[C@@H](CC(=O)O)C(=O)O; NMeL = CN[C@@H](CC(C)C)C(=O)O; NMeV = CN[C@H](C(=O)O)C(C)C; NMeAbu = CC[C@H](NC)C(=O)O; NMeA = CN[C@@H](C)C(=O)O; Piperidide = C1CCN(*)CC1; Abu = CC[C@H](N)C(=O)O; NBuGly = CCCCNCC(=O)O; βAla = NCCC(=O)O; Sar = CNCC(=O)O; tBu = CC(C)(C)*

Experiments:
[1] = Metabolic stability test: liver microsomal stability assay; assay type: in vitro ADME, mouse; details: mouse liver microsomes 0.5 mg protein/mL, compound 1 µM; for microsomal CLint at 1 µM: male, pH 7.4, presence of NADPH, read-out: Mouse Hepatic Microsome CLh,int NADPH(+); for Mouse Hepatic Microsome CLh,int NADPH(-): absence of NADPH
Caco-2 cells = test: Membrane permeability test using Caco-2 cells with preincubation; assay type: in vitro ADME; details: Caco-2 cells, preincubation 20 to 24 hours; apical FaSSIF/HBSS 1% DMSO pH 6.0, basal HBSS 4% BSA pH 7.4; basal sample at 180 minutes
[2] = as above; assay type: in vitro ADME; details: Caco-2; preincubation 20 to 24 hours; Apical FaSSIF/HBSS pH 6.0, Basal HBSS 4% BSA pH 7.4; 180 minutes; read-out: Caco2 Papp

Row | Structure (SMILES) | microsomal CLint at 1 µM [1] [µL/min/mg] | Mouse Hepatic Microsome CLh,int NADPH(-) [1] [µL/min/mg Protein] | Caco2 Papp (10^-6 cm/sec) (Caco-2 cells) | Papp A→B [2] [×10⁻⁶ cm/s]
1 | CC[C@@H]1NC(=O)[C@H](CC(C)C)N(C)C(=O)[C@H](COC(C)(C)C)NC(=O)[C@H]([C@@H](C)CC)NC(=O)[C@H](Cc2ccccc2)N(C)C(=O)CNC(=O)[C@H]([C@@H](C)CC)NC(=O)[C@H](CC(C)C)N(C)C(=O)CCCN(C)C(=O)C[C@@H](C)N(C)C(=O)[C@H](CC(C)C)NC(=O)[C@H](C)N(C)C(=O)[C@H](Cc2ccccc2)N(C)C(=O)[C@H](C(C)C)NC1=O [pd063] (cyclo([Abu]V[NMeF][NMeA]L[NMedβ3hAla][NMeGABA][NMeL]IG[NMeF]IS(tBu)[NMeL])) | 47.5 | 33.7 | 0.03 10^-6 cm/sec | 0.03
2 | CC[C@@H]1NC(=O)[C@H](C(C)C)NC(=O)[C@H]([C@@H](C)CC)N(C)C(=O)[C@H](CCc2ccccc2)NC(=O)[C@H](Cc2ccccc2)N(C)C(=O)[C@H]([C@@H](C)CC)NC(=O)[C@H](CC(C)C)N(C)C(=O)[C@H](CC(C)C)NC(=O)CCN(C)C(=O)C[C@@H](C)N(C)C(=O)[C@H](CC(C)C)N(C)C(=O)CNC(=O)[C@@H]2CCCN2C(=O)[C@H](CC(C)C)N(C)C1=O [pd064] (cyclo([Abu][NMeL]PG[NMeL][NMedβ3hAla][NMeβAla]L[NMeL]I[NMeF][hPhe][NMeI]V)) | 41.4 | 43.3 | 0.04 10^-6 cm/sec | 0.04
3 | CC[C@@H]1NC(=O)[C@H](CC(C)C)N(C)C(=O)[C@H](COC(C)(C)C)NC(=O)[C@H]([C@@H](C)CC)N(C)C(=O)[C@H](CCc2ccccc2)NC(=O)[C@H](Cc2ccccc2)N(C)C(=O)[C@H]([C@@H](C)CC)NC(=O)[C@H](CC(C)C)N(C)C(=O)[C@H](CC(C)C)N(C)C(=O)CCN(C)C(=O)C[C@@H](C)N(C)C(=O)CN(C)C(=O)[C@H](CC(C)C)N(C)C(=O)[C@@H]2CCCN2C1=O [pd066] (cyclo([Abu]P[NMeL][Sar][NMedβ3hAla][NMeβAla][NMeL][NMeL]I[NMeF][hPhe][NMeI]S(tBu)[NMeL])) | 38.9 | 36.4 | 0.33 10^-6 cm/sec | 0.33
4 | CC[C@@H]1NC(=O)[C@@H]2CCCN2C(=O)[C@H](CC(C)C)N(C)C(=O)[C@H](C(C)C)NC(=O)[C@H](CC(C)C)N(C)C(=O)[C@H]([C@@H](C)O)NC(=O)[C@H](Cc2ccccc2)N(C)C(=O)CN(C)C(=O)C[C@@H](C)N(C)C(=O)[C@H](C(C)C)NC(=O)[C@H](COC(C)(C)C)NC(=O)[C@H](C)N(C)C(=O)[C@H](CC(C)C)NC(=O)[C@H](Cc2ccccc2)N(C)C1=O [pd067] (cyclo([Abu][NMeF]L[NMeA]S(tBu)V[NMedβ3hAla][Sar][NMeF]T[NMeL]V[NMeL]P)) | 17 | 10.8 | <0.12 10^-6 cm/sec | < 0.12
5 | CC[C@@H]1NC(=O)[C@H](C(C)C)N(C)C(=O)[C@H](C)N(C)C(=O)[C@H](C(C)C)N(C)C(=O)[C@H](CC)N(C)C(=O)[C@H](Cc2ccccc2)N(C)C(=O)[C@H]([C@@H](C)O)N(C)C(=O)CNC(=O)[C@H](CC(C)C)N(C)C(=O)[C@H](C(C)C)NC(=O)[C@H](COC(C)(C)C)NC(=O)[C@H](CC(C)C)N(C)C(=O)[C@@H](C(C)C)NC(=O)C[C@@H](C)N(C)C1=O [pd068] (cyclo([Abu][NMedβ3hAla][dV][NMeL]S(tBu)V[NMeL]G[NMeT][NMeF][NMeAbu][NMeV][NMeA][NMeV])) | 15.7 | 12.5 | 0.27 10^-6 cm/sec | 0.27
6 | CC[C@@H]1NC(=O)[C@H]([C@@H](C)O)NC(=O)[C@H](Cc2ccccc2)N(C)C(=O)[C@H](CC(C)C)N(C)C(=O)[C@H](C(C)C)NC(=O)[C@H]([C@@H](C)CC)N(C)C(=O)[C@H]([C@@H](C)CC)NC(=O)[C@H](CC(C)C)N(C)C(=O)[C@H](C)N(C)C(=O)[C@H](C)NC(=O)C[C@@H](C)N(C)C(=O)[C@H](CC(C)C)N(C)C(=O)[C@H](C)N(C)C(=O)CN(C)C1=O [pd069] (cyclo(A[NMeA][NMeL]I[NMeI]V[NMeL][NMeF]T[Abu][Sar][NMeA][NMeL][NMedβ3hAla])) | 16.5 | 20.5 | <0.08 10^-6 cm/sec | < 0.08
7 | CC[C@@H]1NC(=O)[C@H](Cc2ccccc2)N(C)C(=O)[C@@H]2CCCN2C(=O)[C@H](CC(C)C)N(C)C(=O)[C@H](CC)NC(=O)[C@H](C(C)C)NC(=O)[C@H](CC(C)C)N(C)C(=O)[C@H]([C@@H](C)O)NC(=O)[C@H](Cc2ccccc2)N(C)C(=O)CN(C)C(=O)C[C@@H](C)N(C)C(=O)[C@H](C(C)C)NC(=O)[C@H](CC)N(C)C(=O)[C@H](C)N(C)C1=O [pd070] (cyclo([Abu][NMeA][NMeAbu]V[NMedβ3hAla][Sar][NMeF]T[NMeL]V[Abu][NMeL]P[NMeF])) | 15 | 14.6 | 0.03 10^-6 cm/sec | 0.03
8 | CC[C@H]1C(=O)N(C)[C@H](C)CC(=O)N[C@H](C(C)C)C(=O)N(C)[C@@H](CC(C)C)C(=O)N(C)[C@@H](C(C)C)C(=O)N[C@@H](C)C(=O)N(C)[C@@H](CC(C)C)C(=O)NCC(=O)N(C)[C@@H]([C@@H](C)O)C(=O)N(C)[C@@H](Cc2ccccc2)C(=O)N(C)[C@@H](CC)C(=O)N[C@@H](COC(C)(C)C)C(=O)N(C)[C@@H](C)C(=O)N(C)[C@@H](C(C)C)C(=O)N1C [pd071] (cyclo(A[NMeL]G[NMeT][NMeF][NMeAbu]S(tBu)[NMeA][NMeV][NMeAbu][NMedβ3hAla][dV][NMeL][NMeV])) | 13.3 | 6.2 | 0.22 10^-6 cm/sec | 0.22
9 | CC[C@@H]1NC(=O)[C@H]([C@@H](C)O)NC(=O)[C@H](Cc2ccccc2)N(C)C(=O)[C@H](CC(C)C)N(C)C(=O)[C@H](C(C)C)N(C)C(=O)[C@H](CC)N(C)C(=O)[C@H]([C@@H](C)CC)NC(=O)[C@H](CC(C)C)N(C)C(=O)[C@H](C)N(C)C(=O)[C@H](C)NC(=O)C[C@@H](C)N(C)C(=O)[C@H](CC(C)C)N(C)C(=O)[C@H](C)N(C)C(=O)CN(C)C1=O [pd072] (cyclo(A[NMeA][NMeL]I[NMeAbu][NMeV][NMeL][NMeF]T[Abu][Sar][NMeA][NMeL][NMedβ3hAla])) | 22.4 | 16.6 | <0.13 10^-6 cm/sec | < 0.13
10 | CC[C@H]1C(=O)N(C)[C@@H](CC(C)C)C(=O)N2CCC[C@H]2C(=O)N(C)[C@@H](CC)C(=O)N[C@@H](CCc2ccccc2)C(=O)N(C)[C@@H](C)C(=O)N(C)[C@@H](CC)C(=O)N[C@@H](C(C)C)C(=O)N(C)[C@H](C)CC(=O)N(C)CC(=O)N(C)[C@@H](Cc2ccccc2)C(=O)N[C@@H]([C@@H](C)O)C(=O)N(C)[C@@H](CC(C)C)C(=O)N[C@@H](C(C)C)C(=O)N1C [pd073] (cyclo([NMeA][NMeAbu]V[NMedβ3hAla][Sar][NMeF]T[NMeL]V[NMeAbu][NMeL]P[NMeAbu][hPhe])) | 24.3 | 2.9 | <0.12 10^-6 cm/sec | < 0.12
11 | CC[C@@H]1NC(=O)[C@H](CC(C)C)N(C)C(=O)[C@H](CC(C)C)NC(=O)[C@H](C)N(C)C(=O)C[C@@H](C(=O)N2CCCCC2)N(C)C(=O)[C@H](C)N(C)C(=O)[C@H](CC(C)C)NC(=O)[C@H](CC(C)C)N(C)C(=O)CNC(=O)[C@H]([C@@H](C)CC)N(C)C(=O)[C@H](Cc2ccccc2)N(C)C(=O)[C@H](C)NC(=O)[C@H]([C@@H](C)CC)NC(=O)[C@H](Cc2ccccc2)N(C)C1=O [pd075] ([NMeA]L[NMeL][Abu][NMeF]IA[NMeF][NMeI]G[NMeL]L[NMeA][NMeD]-Piperidide; lactam N-14) | 35.6 | 42.8 | 0.17 10^-6 cm/sec | 0.17
12 | CCCCN1CC(=O)N(C)[C@@H](Cc2ccccc2)C(=O)N[C@@H](COC(C)(C)C)C(=O)N(C)[C@@H](CC(C)C)C(=O)NCCC(=O)N(C)[C@@H](C)C(=O)N[C@@H]([C@@H](C)CC)C(=O)N(C)[C@@H](CC(C)C)C(=O)N[C@@H](C(C)C)C(=O)N(C)[C@H](C(=O)N2CCCCC2)CC(=O)N(C)CCC(=O)N(C)[C@@H](CC(C)C)C(=O)N[C@@H]([C@@H](C)CC)C(=O)N(C)[C@@H](Cc2ccccc2)C1=O [pd077] ([NMeβAla][NMeL]I[NMeF][NBuGly][NMeF]S(tBu)[NMeL][βAla][NMeA]I[NMeL]V[NMeD]-Piperidide; lactam N-14) | 40 | 40.3 | 0.32 10^-6 cm/sec | 0.32
